Data from patent publication US20050282818A1, “Ubiquitin ligase inhibitors” (Rigel Pharmaceuticals, Inc., priority 2004, published 2005).

How the values were obtained:
TRAF6/Uev1A/Ubc13 = target: T1, TRAF6/Uev1A/Ubc13 (Homo sapiens, UniProt Q9Y4K3); assay: TRAF6/Uev1A/Ubc13 plate-based ubiquitin ligase assay; format: biochemical
T1 sequence (Q9Y4K3 1-522): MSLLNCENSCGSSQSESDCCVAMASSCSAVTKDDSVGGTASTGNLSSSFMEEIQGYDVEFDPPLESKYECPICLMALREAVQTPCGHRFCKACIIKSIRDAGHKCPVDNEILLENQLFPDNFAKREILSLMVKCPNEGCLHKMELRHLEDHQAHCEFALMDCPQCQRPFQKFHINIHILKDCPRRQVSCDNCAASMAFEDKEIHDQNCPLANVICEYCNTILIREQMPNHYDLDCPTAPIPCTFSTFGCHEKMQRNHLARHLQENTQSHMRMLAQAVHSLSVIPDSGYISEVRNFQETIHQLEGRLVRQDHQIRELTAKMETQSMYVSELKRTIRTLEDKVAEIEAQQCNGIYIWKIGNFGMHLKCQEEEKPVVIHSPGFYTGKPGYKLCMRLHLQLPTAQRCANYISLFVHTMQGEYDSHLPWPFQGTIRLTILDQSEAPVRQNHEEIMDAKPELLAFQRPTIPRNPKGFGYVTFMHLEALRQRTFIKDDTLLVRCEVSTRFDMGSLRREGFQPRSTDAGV
How it was run: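 Ligase activity was read as luminescence from anti-Flag/HRP detection of Flag-ubiquitin bound to casein-blocked Ni-plates alongside His-ubiquitin after a 1 h room-temperature reaction. Buffer: 62.5 mM Tris pH 7.5, 6.25 mM MgCl2, 1.0 mM DTT, 2 μM ATP; E1, Uev1a/Ubc13 and TRAF6 added last to start. IC50s derived across compound concentrations.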

[1] = test system: ICAM-1 expression in A549 cells; assay: ICAM assay (IL-1 induced ICAM-1/CD54 expression in A549 cells); format: cell-based, human; details: Homo sapiens, A549, ICAM assay
How it was run: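 A549 cells, 10,000/well, preincubated with compound 1 h at 37° C, then stimulated with IL-1 (4 μl of 25 ng/ml added) for 4 h. Surface ICAM-1 detected by anti-CD54 plus anti-mouse IgG staining for 1 h, luminescent read-out after PBS washes.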

APC11/APC2 = APC11/APC2 (Homo sapiens, UniProt Q9NYG5+Q9UJX6); assay: APC-11/APC-2 ligase assay (APC auto ubiquitination); format: biochemical; details: APC assay
How it was run: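 His-tagged APC was captured on nickel plates with human E1 (5 ng/well), UbcH5c (20 ng/well), APC (100 ng/well) and Flag-ubiquitin (100 ng/well) in a Tris pH 7.6 reaction buffer containing 2.5 mM ATP, for 1 hour at room temperature. Read-out was anti-Flag/HRP chemiluminescence. IC50 was set against a DMSO control, typically from 6 or 8 concentrations.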

Chain of APC11/APC2 (Q9NYG5 whole entry): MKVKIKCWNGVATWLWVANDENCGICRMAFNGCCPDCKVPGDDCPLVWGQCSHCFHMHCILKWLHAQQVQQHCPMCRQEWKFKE
Chain of APC11/APC2 (Q9UJX6 whole entry): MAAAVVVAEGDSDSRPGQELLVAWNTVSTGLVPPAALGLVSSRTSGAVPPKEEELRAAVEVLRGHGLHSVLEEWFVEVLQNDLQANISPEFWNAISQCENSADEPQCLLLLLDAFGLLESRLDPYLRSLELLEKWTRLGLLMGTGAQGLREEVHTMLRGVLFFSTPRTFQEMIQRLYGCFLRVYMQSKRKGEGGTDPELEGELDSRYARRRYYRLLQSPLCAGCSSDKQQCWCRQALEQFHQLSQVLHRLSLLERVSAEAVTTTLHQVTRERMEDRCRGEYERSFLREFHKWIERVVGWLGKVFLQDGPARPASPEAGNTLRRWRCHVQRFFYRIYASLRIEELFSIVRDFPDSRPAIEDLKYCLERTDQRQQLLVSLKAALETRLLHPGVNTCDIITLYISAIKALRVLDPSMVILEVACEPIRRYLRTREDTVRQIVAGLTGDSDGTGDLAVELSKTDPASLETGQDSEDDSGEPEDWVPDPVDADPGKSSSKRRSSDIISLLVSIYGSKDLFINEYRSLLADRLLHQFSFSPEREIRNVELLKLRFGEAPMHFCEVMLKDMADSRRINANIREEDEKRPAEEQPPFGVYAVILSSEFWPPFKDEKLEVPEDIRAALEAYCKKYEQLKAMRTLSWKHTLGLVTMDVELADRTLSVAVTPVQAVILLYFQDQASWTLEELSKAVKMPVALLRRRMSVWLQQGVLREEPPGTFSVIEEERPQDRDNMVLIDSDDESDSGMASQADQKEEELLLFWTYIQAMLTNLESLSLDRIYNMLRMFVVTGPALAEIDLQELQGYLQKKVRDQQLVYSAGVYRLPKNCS

IC50 (TRAF6/Uev1A/Ubc13)	IC50 [1]	IC50 (APC11/APC2)	SMILES
≥ 20 µM	≥ 20 µM	≥ 20 µM	COc1ccccc1-c1cc([N+](=O)[O-])cc2nonc12 [compound 482, 4-(2-methoxyphenyl)-6-nitro-2,1,3-benzoxadiazole]
≥ 20 µM	≥ 20 µM	≥ 20 µM	COc1ccc(-c2cc3nsnc3cc2F)cc1 [compound 462, 5-(4-methoxyphenyl)-6-fluoro-2,1,3-benzthiadiazole]
≥ 20 µM	1 to 20 µM	≥ 20 µM	O=S(=O)(NCc1ccncc1)c1ccc(Cl)c2nonc12 [compound 455, 7-chloro-N-(pyridin-4-ylmethyl)-2,1,3-benzoxadiazole-4-sulfonamide]
≥ 20 µM	≥ 20 µM	1 to 20 µM	O=[N+]([O-])c1ccc(-c2ccccc2)c2nonc12 [compound 440, 4-nitro-7-phenyl-2,1,3-benzoxadiazole]
1 to 20 µM	1 to 20 µM	1 to 20 µM	Cc1ccc(-c2ccc([N+](=O)[O-])c3nonc23)cc1C [compound 472, 4-(3,4-dimethylphenyl)-7-nitro-2,1,3-benzoxadiazole]
≥ 20 µM	≥ 20 µM	≥ 20 µM	Cc1cc(C)cc(-c2cc3nsnc3cc2F)c1 [compound 461, 5-(3,5-dimethylphenyl)-6-fluoro-2,1,3-benzthiadiazole]
≥ 20 µM	≥ 20 µM	≥ 20 µM	COc1ccc2nonc2c1-c1cc(C)cc(C)c1 [compound 450, 4-(3,5-dimethylphenyl)-5-methoxy-2,1,3-benzoxadiazole]
≥ 20 µM	≥ 20 µM	≥ 20 µM	O=C1CCCN1CCCNS(=O)(=O)c1ccc(Cl)c2nonc12 [compound 456, 7-chloro-N-(3-[2-oxopyrrolidin-1-yl]propyl)-2,1,3-benzoxadiazole-4-sulfonamide]
≥ 20 µM	1 to 20 µM	≥ 20 µM	COc1ccc(-c2ccc([N+](=O)[O-])c3nonc23)cc1OC [compound 465, 4-(3,4-dimethoxyphenyl)-7-nitro-2,1,3-benzoxadiazole]
≥ 20 µM	≥ 20 µM	≥ 20 µM	FC(F)(F)c1cc(-c2ccccc2)c2nonc2c1 [compound 474, 4-phenyl-6-(trifluoromethyl)-2,1,3-benzoxadiazole]
1 to 20 µM	1 to 20 µM	1 to 20 µM	O=[N+]([O-])c1cccc(-c2ccc([N+](=O)[O-])c3nonc23)c1 [compound 444, 4-nitro-7-(3-nitrophenyl)-2,1,3-benzoxadiazole]
≥ 20 µM	≥ 20 µM	≥ 20 µM	FC(F)(F)c1cc(-c2ccc3c(c2)OCO3)c2nonc2c1 [compound 475, 4-(benzodioxol-5-yl)-6-(trifluoromethyl)-2,1,3-benzoxadiazole]

Second part, the compound before the results:

SMILES	IC50 (TRAF6/Uev1A/Ubc13)	IC50 [1]	IC50 (APC11/APC2)
O=S(=O)(Nc1ccc(O)c2ccccc12)c1ccc(Cl)c2nonc12 [compound 393, 7-chloro-N-(4-hydroxynaphthalen-1-yl)-2,1,3-benzoxadiazole-4-sulfonamide]	1 to 20 µM	1 to 20 µM	1 to 20 µM
O=S(=O)(Nc1cc(Cl)ccc1Cl)c1ccc(Cl)c2nonc12 [compound 365, 7-chloro-N-(2,5-dichlorophenyl)-2,1,3-benzoxadiazole-4-sulfonamide]	≥ 20 µM	≥ 20 µM	≥ 20 µM
O=[N+]([O-])c1ccc(Nc2ccccc2F)c2nonc12 [compound 401, N-(2-fluorophenyl)-7-nitro-2,1,3-benzoxadiazol-4-amine]	≥ 20 µM	≥ 20 µM	≥ 20 µM
O=S(=O)(Nc1ccc(OS(=O)(=O)c2ccc(Cl)c3nonc23)c2ccccc12)c1ccc(Cl)c2nonc12 [compound 394, 4-(7-chloro-2,1,3-benzoxadiazole-4-sulfonamido)naphthalen-1-yl 7-chloro-2,1,3-benzoxadiazole-4-sulfonate]	1 to 20 µM	1 to 20 µM	1 to 20 µM
COc1ccccc1Sc1ccc(S(=O)(=O)Nc2cccc(F)c2F)c2nonc12 [compound 378, N-(2,3-difluorophenyl)-7-([2-methoxyphenyl]thio)-2,1,3-benzoxadiazole-4-sulfonamide]	≥ 20 µM	≥ 20 µM	1 to 20 µM
Nc1cccc2c(NS(=O)(=O)c3ccc(Cl)c4nonc34)cccc12 [compound 387, N-(5-aminonaphthalen-1-yl)-7-chloro-2,1,3-benzoxadiazole-4-sulfonamide]	≥ 20 µM	1 to 20 µM	≥ 20 µM
Nc1cccc2c(NS(=O)(=O)c3ccc(N4CCOCC4)c4nonc34)cccc12 [compound 389]	≥ 20 µM	≥ 20 µM	≥ 20 µM
COc1ccccc1Nc1ccc(S(=O)(=O)Nc2ccccc2F)c2nonc12 [compound 404, N-(2-fluorophenyl)-7-([2-methoxyphenyl]amino)-2,1,3-benzoxadiazole-4-sulfonamide]	≥ 20 µM	≥ 20 µM	≥ 20 µM
Oc1ccc2c(c1)cc(Cl)c1nonc12 [compound 430, 4-chloronaphtho[2,1-c][1,2,5]oxadiazol-7-ol]	≥ 20 µM	≥ 20 µM	≥ 20 µM
COc1ccc(C)cc1NS(=O)(=O)c1ccc(Cl)c2nonc12 [compound 381, 7-chloro-N-(2-methoxy-5-methylphenyl)-2,1,3-benzoxadiazole-4-sulfonamide]	≥ 20 µM	1 to 20 µM	≥ 20 µM
COc1ccc(C)cc1NS(=O)(=O)c1ccc(Sc2cccc3cccnc23)c2nonc12 [compound 384, N-(2-methoxy-5-methylphenyl)-7-(quinolin-8-ylthio)-2,1,3-benzoxadiazole-4-sulfonamide]	1 to 20 µM	≥ 20 µM	≥ 20 µM
Nc1ccc(OS(=O)(=O)c2ccc(Cl)c3nonc23)c2ccccc12 [compound 391, 4-aminonaphthalen-1-yl 7-chloro-2,1,3-benzoxadiazole-4-sulfonate]	1 to 20 µM	1 to 20 µM	1 to 20 µM
O=S(=O)(Nc1ccccc1F)c1ccc(N2CCOCC2)c2nonc12 [compound 372, N-(2-fluorophenyl)-7-(morpholin-4-yl)-2,1,3-benzoxadiazole-4-sulfonamide]	≥ 20 µM	≥ 20 µM	≥ 20 µM
COc1cccc(-c2cc(N3CCCCC3)c([N+](=O)[O-])c3nonc23)c1 [compound 434, 7-(3-methoxyphenyl)-4-nitro-5-(piperidin-1-yl)-2,1,3-benzoxadiazole]	≥ 20 µM	≥ 20 µM	≥ 20 µM
O=S(=O)(Nc1cccc2ccc(O)cc12)c1ccc(N2CCOCC2)c2nonc12 [compound 385, N-(7-hydroxynaphthalen-1-yl)-7-(morpholin-4-yl)-2,1,3-benzoxadiazole-4-sulfonamide]	≥ 20 µM	≥ 20 µM	≥ 20 µM
O=S(=O)(c1c(N2CCOCC2)cc(Cl)c2nonc12)N1CCOCC1 [compound 412, 7-chloro-5-(morpholin-4-yl)-4-{(morpholin-4-yl)sulfonyl}-2,1,3-benzoxadiazole]	≥ 20 µM	1 to 20 µM	≥ 20 µM
CC(C)c1ccccc1NS(=O)(=O)c1ccc(Cl)c2nonc12 [compound 347, 7-chloro-N-(2-isopropylphenyl)-2,1,3-benzoxadiazole-4-sulfonamide]	≥ 20 µM	1 to 20 µM	≥ 20 µM
CC(C)(C)c1ccc(-c2ccc(N)c3nonc23)cc1 [compound 435, 7-(4-t-butylphenyl)-2,1,3-benzoxadiazol-4-amine]	≥ 20 µM	≥ 20 µM	≥ 20 µM
COc1ccccc1C(=O)Nc1ccc(Nc2cccc(F)c2F)c2nonc12 [compound 403, N-(7-[{2,3-difluorophenyl}amino]-2,1,3-benzoxadiazol-4-yl)-2-methoxybenzamide]	≥ 20 µM	≥ 20 µM	≥ 20 µM
Fc1c(N2CCOCC2)cc2nonc2c1F [compound 406, 4,5-difluoro-6-(morpholin-4-yl)-2,1,3-benzoxadiazole]	≥ 20 µM	≥ 20 µM	≥ 20 µM
COC(=O)c1ccc(Cl)cc1NS(=O)(=O)c1ccc(Cl)c2nonc12 [compound 360, methyl 4-chloro-2-{[(7-chloro-2,1,3-benzoxadiazol-4-yl)sulfonyl]amino}benzoate]	≥ 20 µM	1 to 20 µM	≥ 20 µM
